From US9303092B2, “Methamphetamine-like hapten compounds, linkers, carriers and compositions and uses thereof” (The Board of Trustees of the University of Arkansas, priority 2000, dated 2016)

Tests used:
[1] = (+)-Methamphetamine and (+)-amphetamine pharmacokinetic studies in serum and brain with and without mAb6H4; settings: for AUC(0-t): male, Sprague-Dawley, rat, in vivo, Serum
Procedure: This allowed the administration of approximately 100 μCi per rat by injection of 1 μl/g of rat body weight.
Male Sprague-Dawley rats were randomly placed into two groups. […] Ethyl ether was used for anesthesia so that hemodynamic stability could be maintained before animal sacrifice. Immediately after blood collection, the rats were decapitated and the brain was removed. The brain was rinsed with saline, weighed, and placed in liquid nitrogen within 3 min of decapitation. Hematocrit values were obtained for each animal. The blood was allowed to clot and serum was obtained after centrifugation. The serum and brain tissues were stored at −80° C. until analyzed.
The second group was the mAb-treatment group. All aspects of the experiment were same as those described for the control group, with the following exception. […] The mAb was given via the jugular venous catheter in an 8-ml volume at 2 ml/min. Because the experimental protocol was the same up until the mAb was administered, the time points before 30 min were not repeated in this group.
For serum analysis, 300 μl of guanidine HCl was added to 200-μl of each serum sample to denature the proteins. The samples were vortexed and placed on a gentle shaker for 30 min. […] After sample application, the cartridges were centrifuged at 230 g for 1 min, washed with 1 ml of water, and then centrifuged. […] Then, 1 ml of methanol:acetic acid (98:2) was added, followed by centrifugation.
A 200-μl aliquot was then added to 300 μl of 8 M guanidine HCl. The mixture was vortexed and gently shaked for 30 min. […] The mixture was vortexed, placed on ice for 5 min, and centrifuged at 12,500 g for 5 min.
Supernatants from the brain samples were applied to conditioned extraction cartridges and then centrifuged at 600 g for 4 min. The brain precipitates left over from the 12,500 g centrifugation were resuspended in 500 μl of water and centrifuged at 12,500 g for 3 min. The supernatants were then added to their respective extraction columns and centrifuged at 600 g for 4 min. This was followed by a 1-ml water wash, with another 4 min centrifugation at 600 g. Finally, the cartridges were placed in siliconized test tubes for sample collection. The elution process was as described for the serum samples.
After elution, the samples were taken to dryness over 3 h in a vacuum centrifuge (Savant Instruments, Inc., Farmingdale, N.Y.) with no heat or cryopumping.
The data were fit to both two- and three-compartment i.v. bolus models, with y (predicted concentration), 1/y, or 1/y^2 weighting. The best-fit line was chosen by visual inspection and analysis of the residuals. […] All pharmacokinetic analysis was performed with the use of WinNonlin V3.0 (Pharsight Corporation, Mountain View, Calif.).

[2] = after intravenous (+)-methamphetamine; cited from earlier work
[3] = test system: discriminative stimulus effects of (+)-methamphetamine; test: Drug discrimination in rats; settings: i.p., group III
[4] = test system: discriminative stimulus effects of (+)-methamphetamine; test: Drug discrimination in pigeons; settings: i.m.
Procedure: The pigeons used in these experiments had performed in experiments previously.
Training continued for 40 min or until the pigeons had received 20 reinforcers, whichever occurred first. […] In the determination of cumulative dose-response curves, a dose of drug was administered and the pigeon was placed in the chamber for 10 min, after which the chamber and key lights were illuminated. The pigeon was tested for 5 min or until one food reinforcer had been delivered, whichever occurred first. Food was delivered following the completion of 20 responses on one of the two keys. After food had been delivered, or the session had timed out, the bird was removed from the chamber, a higher dose was administered, and the process was repeated.
Because only a few birds were still available for these experiments, the data for days 1-2 and days 7-8 were combined.
All doses are expressed as the salts.

mAb4G9 = test: RIA binding specificity, relative potency to METH; parameters: species or system mouse; settings: RIA IC50 value for METH/RIA IC50 value for test ligand
mAb6H4 = test: RIA binding specificity, relative potency to METH; parameters: species or system mouse; settings: RIA IC50 value for METH/RIA IC50 value for test ligand
mAb6H8 = test: RIA binding specificity, relative potency to METH; parameters: species or system mouse; settings: RIA IC50 value for METH/RIA IC50 value for test ligand
[5] = test system: (+)methamphetamine induced effects; test: Pretreatment with anti-(+)methamphetamine monoclonal antibody before 1 mg/kg (+)methamphetamine challenge; format: in vivo, rat; settings: 1.0 mg/kg i.v.
Procedure: Rats (n=7/group) were administered a dose of […] of anti-methamphetamine monoclonal antibody on day 1. The following day they were administered i.v. (+)methamphetamine (1.0 mg/kg) 3 days apart on two occasions to stabilize locomotor responses and to minimize sensitization.

[6] = test system: methamphetamine-induced locomotor activity; test: Anti-METH Fab treatment of methamphetamine-induced behavioral effects; format: in vivo, rat; settings: 1 mg/kg iv methamphetamine, treatment at 30 min
Procedure: Rats (n=4 per group) were administered saline (left most bar) or 1.0 mg/kg d-methamphetamine as an intravenous bolus dose. When drug effects were maximizing at 30 minutes, they were treated with saline (control), an anti-phencyclidine monoclonal antibody Fab fragment (anti-PCP), or an anti-d-methamphetamine-specific monoclonal antibody Fab fragment (anti-methamphetamine).

[7] = Preliminary studies of high i.v. (+)-methamphetamine doses
[8] = from Riviere et al. (1999); cited from earlier work
[9] = test system: (+)-methamphetamine-induced locomotor activity; test: (+)-Methamphetamine locomotor activity studies, rat overdose model, mAb at t=30 min; format: in vivo
Procedure: The parameters of distance traveled (in centimeters or meters), number of rearing events, and time spent moving (in seconds) were individually quantified for each animal. […] Briefly, animals were placed in polyethylene chambers that contained a bedding of dark-gray clay. Animal behavior was videotaped, and the video images were digitized and quantitated in 4-min intervals by EthoVision software (Noldus Information Technology Inc., Sterling, Va.). The duration of drug action was calculated for each parameter starting at 30 min (time of treatment) and until the locomotor activity returned to baseline.
Rats were habituated to the behavioral monitoring chambers before the start of the experimental protocol. This was accomplished by placing the rats in the chambers for a minimum of 3 h per day for 4-6 consecutive days. […] The rats in each group were dosed every three days for a total of 10 days.
On day 1, all groups received saline followed at 30 min by mAb buffer to obtain baseline (non-drug-induced) behavior.
All control buffer and mAb solutions were administered via the jugular venous catheter in an 8-ml volume at 2 ml/min. Three days after the end of the experimental protocol for the 1-mg/kg group, locomotor activity from a second saline administration was monitored to determine whether any changes had occurred in baseline activity.
All other aspects of the protocol were as just described.

Compound | Relative Potency to METH, mAb4G9 (mAb4G9) | Relative Potency to METH, mAb6H4 (mAb6H4) | Relative Potency to METH, mAb6H8 (mAb6H8) | also measured
CC(N)Cc1ccccc1 (single isomer, unassigned; (+)) [(+)AMP, (+)-amphetamine] | – | – | – | AUC38 min-[…] Treated ([1]; Brain, 1-mol equivalent dose of mAb at 30 min): 284 ng·h/g; AUC38 min-[…] Control ([1]; Brain, without treatment): 530 ng·h/g; AUC(0-t) ([1]; AUC38 min-[…] Control, without treatment): 55 ng·h/mL; AUC(0-t) ([1]; AUC38 min-[…] Treated, 1-mol equivalent dose of mAb at 30 min): 73 ng·h/mL; time to peak plasma levels of (+)-amphetamine [2]: ≤ 20 min; potency of (+)-methamphetamine and (+)-amphetamine as discriminative stimuli compared [3]: nearly equipotent; potency of (+)-methamphetamine and (+)-amphetamine compared [4]: approximately equipotent
CC(N)Cc1ccc2c(c1)OCO2 (single isomer, unassigned; (+)) [(+)MDA] | 0.090 | 0.001 | 0.024 | –
CNC(C)Cc1ccc2c(c1)OCO2 (single isomer, unassigned; (+)) [(+)MDMA, (+)-3,4-methylenedioxymethamphetamine] | 0.29 | 1.25 | 3.40 | –
CC(N)C(O)c1ccccc1 (single isomer, unassigned; (+)) [(+)phenylpropanolamine] | <0.001 | <0.001 | <0.001 | –
CC(N)Cc1ccc2c(c1)OCO2 (single isomer, unassigned; (-)) [(−)MDA] | 0.002 | <0.001 | <0.001 | –
CNC(C)Cc1ccc2c(c1)OCO2 (single isomer, unassigned; (-)) [(−)MDMA] | 0.011 | 0.007 | 0.018 | –
CNC(C)Cc1ccc(O)cc1 (centres unmarked) [4-OH-METH] | 0.106 | 0.588 | 0.294 | –
CN[C@H](C)[C@@H](O)c1ccccc1 [(+)ephedrine] | <0.001 | <0.001 | <0.001 | –
CN[C@H](C)Cc1ccccc1 [(−)METH] | 0.102 | 0.030 | 0.011 | –
CNC[C@H](O)c1cccc(O)c1 [/-phenylphrine] | <0.001 | 0.001 | <0.001 | –
NCCc1ccc(O)c(O)c1 [dopamine] | <0.001 | <0.001 | <0.001 | –
CNC[C@H](O)c1ccc(O)c(O)c1 [epinephrine] | <0.001 | <0.001 | <0.001 | –
NC[C@H](O)c1ccc(O)c(O)c1 [norepinepherine] | <0.001 | <0.001 | <0.001 | –
NCCc1c[nH]c2ccc(O)cc12 [serotonin] | <0.001 | <0.001 | <0.001 | –
NCCc1ccc(O)cc1 [tyramine] | <0.001 | <0.001 | <0.001 | –
NCCc1ccccc1 [β-phenylethylamine] | 0.001 | <0.001 | <0.001 | –
(+)-methamphetamine [(+)METH] | – | – | – | duration of action of (+)methamphetamine without the monoclonal antibody [5]: about 160 min; duration of action / activity, distance traveled parameter [6]: 116 ± 17 min; potency of (+)-methamphetamine and (+)-amphetamine as discriminative stimuli compared [3]: nearly equipotent; doses sometimes lethal [7]: 10 mg/kg; i.v. doses that led to self-mutilation [7]: ≥ 5.2 mg/kg; potency of (+)-methamphetamine and (+)-amphetamine compared [4]: approximately equipotent; t1/2dist of (+)-methamphetamine in serum [8]: 9 min; duration of (+)-methamphetamine-induced locomotor effects following buffer ([9]; 0.3-mg/kg dose): approximately 1 h; duration of (+)-methamphetamine-induced locomotor effects following buffer ([9]; 1.0-mg/kg dose): ~2 h; duration of drug action following buffer ([9]; 3.0-mg/kg group): 4 h
(+)norpseudoephedrine | <0.001 | <0.001 | <0.001 | –
(+)pseudoephedrine | 0.004 | <0.001 | 0.018 | –
